Reference: US20090220507A1, “INHIBITION OF EXTRACELLULAR SIGNAL-REGULATED KINASE 1/2 AS A TREATMENT FOR CARDIAC HYPERTROPHY AND HEART FAILURE” (priority 2005, published 2009)
Entries after “also recorded” stand apart in the source; their conditions may differ. * marks the point of attachment. Myristoyl = CCCCCCCCCCCCCC(=O)*

What was measured:
[1] = tested on: ERK1/2; assay: Western blot of phosphorylated ERK1/2 in isoproterenol-stimulated NRVMs; assay type: cell-based, rat; details: for isoproterenol activation of ERK1/2 (phosphorylation): all time points (5, 30, 60 minutes, 6, 24, 33, 48 hours)
Method: (§1) Materials. Isoproterenol (Sigma) was dissolved in sterile H2O containing 1 mmol/L Ascorbic Acid, and the concentrations used are described in the results section.
(§2) Cell Culture. Neonatal rat cardiac ventricular myocytes (NRVMs) were cultured as previously described (Simpson et al., 1982; Simpson and Savion, 1982; Long et al., 1992; Waspe et al., 1990). Briefly, cells were isolated by trypsin digestion from the ventricles of 1-3 day old rats. Isolation procedures were done in a very gentle manner and cells were plated at a concentration of 1.5×10^5 cells per well in 12-well tissue culture plates in medium containing serum. 24 hours later the media was changed to serum free media containing insulin, transferin, bovine serum albumin, vitamin B12 and penicillin. Wells were pre-coated with a 0.1% gelatin solution and dried in a hood under UV lights. In addition, all media solutions were supplemented with Hepes (pH 7.5) to a final concentration of 20 mmol/L in order to buffer the pH of the media.
ERK1/2 Western Blots. Phosphorylated ERK1/2 protein extraction was performed essentially as described in Headley et al. (2004).
ERK1/2 activation is dependent on calcineurin and on CaMKII.

[2] = tested on: β1-AR-mediated fetal gene expression in NRVMs; assay: RNase protection assay of isoproterenol-induced fetal gene program mRNA in NRVMs; assay type: cell-based, rat
Method: as §1, §2
(§3) RNase Protection Assay. Total RNA was extracted by TRIZol (Invitrogen) and used in RNase protection assays (RPA). RPAs were performed essentially as described (Patten et al., 1996; Kinugawa et al., 2001). Briefly, 5 μg of total RNA was hybridized against probes specific to skeletal α-actin, SRCA2A, α-MyHC, β-MyHC, ANF, BNP and GAPDH. RNase protection experiments were performed using the RPAII kit (Ambion). RPA experiments were performed from mRNA extracted from a minimum of three different experiments.
as §3, with “RNase Protection Assay: Total RNA” for “RNase Protection Assay. Total RNA”, “al., 1996; Kinuguwa et al.,” for “al., 1996; Kinugawa et al.,”, “protection experiments (RPAs) were performed” for “protection experiments were performed”

[3] = inhibitor 1 hour before isoproterenol, RPA, mRNA normalized to GAPDH
[4] = inhibitor alone, without isoproterenol
[5] = inhibitor 1 hour after ISO treatment, mRNA extracted 48 hours later, RPA

| Compound | isoproterenol activation of ERK1/2 (phosphorylation) ([1]; inhibitor pre-treatment) | isoproterenol-induced changes in endogenous mRNA fetal gene program induction (all changes in fetal gene expression) [2, 3] | isoproterenol-associated down-regulation (repression) of SRCA2a [2, 3] | isoproterenol-associated down-regulation (repression) of α-MyHC [2, 3] | isoproterenol-associated up-regulation (induction) of ANP [2, 3] | isoproterenol-associated up-regulation of BNP [2, 3] | isoproterenol-associated up-regulation of skeletal α-actin [2, 3] | also measured |
| --- | --- | --- | --- | --- | --- | --- | --- | --- |
| 14-22 Amide myristoylated (Myristoyl-GRTGRRNAI-NH2; SMILES CCCCCCCCCCCCCC(=O)NCC(=O)N[C@@H](CCCNC(=N)N)C(=O)N[C@H](C(=O)NCC(=O)N[C@@H](CCCNC(=N)N)C(=O)N[C@@H](CCCNC(=N)N)C(=O)N[C@@H](CC(N)=O)C(=O)N[C@@H](C)C(=O)N[C@H](C(N)=O)[C@@H](C)CC)[C@@H](C)O; UniProt P61925 15-23, looked up, fragment) [PKI14-22] | did not prevent |  |  |  |  |  |  |  |
| NCCOB(c1ccccc1)c1ccccc1 [AFB-30, 2-APB] |  | completely abrogated |  |  |  |  |  |  |
| COc1ccc(S(=O)(=O)N(CCO)c2ccccc2CN(C)C/C=C/c2ccc(Cl)cc2)cc1 [KN-93] |  | prevented | not capable of preventing | prevented | prevented | prevented | prevented | activation of ERK1/2 in response to isoproterenol (phosphorylation) ([1]; inhibitor pre-treatment, 33 and 48 hour isoproterenol time points): blocked; ANP mRNA levels [2, 4]: decrease; SRCA2a mRNA levels [2, 4]: decrease; β-MyHC mRNA levels [2, 4]: decrease |
| N#CC(=C(/N)Sc1ccccc1N)/C(C#N)=C(\N)Sc1ccccc1N [U0126] | completely abrogates |  | does not prevent | blocks; also recorded: prevents | blocks | blocks | blocks | ISO-mediated down-regulation of αMyHC [2, 5]: prevents; ISO-mediated up-regulation of the fetal isoforms (fetal gene expression) [2, 5]: prevents; up-regulation (activation) of β-MyHC in response to isoproterenol stimulation [2, 3]: prevents; ISO-mediated up-regulation of the fetal isoforms ([2]; inhibitor 1 hour prior to ISO treatment, mRNA extracted 48 hours later, RPA): prevents |
| CC(C)NCC(O)c1ccc(O)c(O)c1 (centres unmarked) [isoproterenol] |  |  |  |  |  |  |  | ERK phosphorylation as a surrogate marker for activation ([1]; isoproterenol stimulation, 5 minutes, 33 hours and 48 hours): increased |
